Assay results as given in patent publication US20080255134A1 (Artesian Therapeutics, Inc., priority 2004, published 2008).
Where two headings read alike, the source gives them in different places. Values belong to the compound of their own block, whether it stands above or below them.

Key:
[1] = test system: White New Zealand male rabbits; assay: In vivo β-adrenergic blockade, isoproterenol challenge (Protocol 1); set-up: species or system rabbit; settings: for decrease of left ventricular contractility (% of isoproterenol effect): doses that completely diminished isoproterenol-dependent increase in heart rate: atenolol 1 mg/kg, carvedilol 0.3 mg/kg, Compound 8c 1 mg/kg, mean±SEM
Protocol: (§1) Studies were performed on White New Zealand male rabbits (2-3 kg weight). Animals were initially anesthetized with ketamine (50 mg/kg; IM) and xylazine (6 mg/kg, IM). Subsequently, animals were intubated (via tracheotomy; 3 mm tube) and ventilated with 2% isoflurane (mixed in 95% O2+5% CO2). Each rabbit was instrumented for LV pressure (3F Millar catheter) through right carotid artery, arterial pressure (3F catheter, Cook Instruments) through left femoral artery, which was connected to a fluid-filled pressure transducer (BD Instruments), and ECG. Both pressure transducers were zeroed against atmospheric pressure, and calibrated before each study using an analog manometer. Upon completion of instrumentation, isoflurane was reduced to 1.25%, and the animal was covered for maintenance of body core temperature. Arterial and LV blood pressures (LVP) and the ECG signals were simultaneously digitally recorded on a PC. The recording system (Gould Instruments) and the corresponding software (Ponema, Gould Instruments) facilitated detailed calculation of various parameters directly from all signals and record on a separate file with a 1 sec resolution. Upon completion of the study protocol, rabbits were euthenized by isoflurane overdose (5% for at least 1 minute) and cardiac arrest through IV infusion of 5 ml 3 molar potassium chloride.
(§2) Once the physiological variables were stable, effects of each drug on hemodynamics and ECG were determined based on two different protocols: 1) infusion of a compound of the present invention to determine the effects of the compound itself mainly on contractility, and other hemodynamic indices; and 2) infusion of a compound of the present invention while the system was challenged with 0.5 ug/kg isoproterenol to determine the beta-adrenergic antagonism properties of each tested compound.
(§3) White New Zealand male rabbits (2-3 kg) were anesthetized and ventilated (95% O2+5% CO2) with 1.25% isoflurane. Each animal was instrumented for LV pressure (Millar, through left carotid artery), arterial pressure (left femoral artery), infusion (jugular vein), and electrocardiogram. The animals were administered intravenously based on one of these protocols:
Protocol 1: β-adrenergic blockade (isoproterenol challenge).

[2] = test system: α1-adrenergic receptor; assay: Non-selective α1-adrenergic receptor assay using rat forebrain membranes; assay type: binding
Protocol: (§4) The ability of Compounds 25 and 8c to inhibit PDE3 and β-adrenergic receptor activity was examined both in vitro and in vivo. […] Non-selective β-adrenergic and β1-adrenergic radioligand binding assays were performed using rat cortical membranes; β2-adrenergic receptor assays were performed using membranes isolated from CHO cells expressing human, recombinant b2-adrenergic receptor; non-selective α1-adrenergic receptor assays were performed using rat forebrain membranes; and PDE3 binding assays were performed on human platelets. Values in percent illustrate percent inhibition at 1000 nM concentration.

[3] = target: T1, β1-adrenergic receptor (Rattus norvegicus, UniProt P18090); assay: β1-adrenergic radioligand binding assay using rat cortical membranes; settings: at 1000 nM concentration, read-out: β1-adrenergic percent inhibition
T1 construct: from tissue; host or cells: rat cortical membranes
Protocol: (§5) Non-selective β-adrenergic and β1-adrenergic radioligand binding assays were performed using rat cortical membranes; β2-adrenergic receptor assays were performed using membranes isolated from CHO cells expressing human, recombinant b2-adrenergic receptor; non-selective α1-adrenergic receptor assays were performed using rat forebrain membranes; and PDE3 binding assays were performed on human platelets. Values in percent illustrate percent inhibition at 1000 nM concentration.

[4] = test system: White New Zealand male rabbits; assay: In vivo hemodynamic effects of compounds administered alone (Protocol 2); set-up: species or system rabbit; settings: for mean arterial pressure: doses that completely diminished isoproterenol-dependent increase in heart rate, Protocol 2, FIG. 15; for left ventricular contractility when administered alone: protocol 2, relative to control, FIGS. 2, 12
Protocol: as §1, §2, §3
Protocol 2: PDE3 inhibition (effects of compounds when administered alone).

[5] = test system: naive anesthetized canines; assay: Contractility in naive anesthetized canines (protocol 2); assay type: in vivo, canine; settings: administered alone (protocol 2), FIG. 17
[6] = target: T2, human recombinant beta-2 receptors (Homo sapiens, UniProt P07550); assay: β2-receptor radioligand binding, [125I] iodocyanopindolol, CHO-WT21 cells; settings: at 100 nM
T2 construct: expressed in transfected cells; host or cells: CHO-WT21 cells
Protocol: as §5

[7] = target: T3, PDE3 (Homo sapiens, UniProt Q14432); assay: In vitro assay for cAMP PDE-3 inhibitory activity; assay type: biochemical; settings: human platelet cyclic AMP phosphodiesterase, bound stated
T3 construct: from tissue; host or cells: human platelets
Protocol: Human platelet cyclic AMP phosphodiesterase was prepared according to the method of Alvarez et al., Mol. Pharmacol. 29: 554 (1986). The PDE incubation medium contained 10 mM Tris-HCl buffer, pH 7.7, 10 mM MgSO4, and 1 μM […] (0.2 μCi) in a total volume of 1.0 mL. Test compounds were dissolved in DMSO immediately prior to addition to the incubation medium, and the resulting mixture was allowed to stand for 10 minutes prior to the addition of enzyme. Following the addition of PDE, the contents were mixed and incubated for 10 minutes at 30° C. Three assays each were performed for each of five test compound concentrations, the mean of the determinations (n=3) at each concentration was plotted, and IC50 values were determined graphically.
as §4

[8] = target: T4, human recombinant beta-1 receptors (Homo sapiens, UniProt P08588); assay: β1-receptor radioligand binding, [125I] iodocyanopindolol, CHO-REX16 cells; settings: at 100 nM
T4 construct: expressed in transfected cells; host or cells: CHO-REX16 cells
Protocol: […] receptor binding was measured in human recombinant beta-1 receptors expressed in CHO-REX16 cells, using [^125I] (-) iodocyanopindolol (2000 Ci/mmol) as the radioligand, as described in Kalaria et al., J. Neurochem. 53: 1772-81 (1998), and Minneman et al., Mol. Pharmacol. 16: 34-46 (1979).

[9] = read-out: PDE IC50 inhibition values

T2 sequence (P07550 whole entry): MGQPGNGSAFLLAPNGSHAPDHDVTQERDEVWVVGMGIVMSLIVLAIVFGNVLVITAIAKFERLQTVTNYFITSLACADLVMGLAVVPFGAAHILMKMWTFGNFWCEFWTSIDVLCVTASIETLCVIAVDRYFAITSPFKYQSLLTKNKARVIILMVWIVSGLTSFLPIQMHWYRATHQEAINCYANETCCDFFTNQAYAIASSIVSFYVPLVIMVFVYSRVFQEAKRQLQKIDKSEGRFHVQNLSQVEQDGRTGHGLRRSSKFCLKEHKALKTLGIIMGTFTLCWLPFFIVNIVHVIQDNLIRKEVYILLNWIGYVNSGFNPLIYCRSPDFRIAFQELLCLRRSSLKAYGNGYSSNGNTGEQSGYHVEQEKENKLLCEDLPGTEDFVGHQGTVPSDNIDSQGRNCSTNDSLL
T3 sequence (Q14432 whole entry): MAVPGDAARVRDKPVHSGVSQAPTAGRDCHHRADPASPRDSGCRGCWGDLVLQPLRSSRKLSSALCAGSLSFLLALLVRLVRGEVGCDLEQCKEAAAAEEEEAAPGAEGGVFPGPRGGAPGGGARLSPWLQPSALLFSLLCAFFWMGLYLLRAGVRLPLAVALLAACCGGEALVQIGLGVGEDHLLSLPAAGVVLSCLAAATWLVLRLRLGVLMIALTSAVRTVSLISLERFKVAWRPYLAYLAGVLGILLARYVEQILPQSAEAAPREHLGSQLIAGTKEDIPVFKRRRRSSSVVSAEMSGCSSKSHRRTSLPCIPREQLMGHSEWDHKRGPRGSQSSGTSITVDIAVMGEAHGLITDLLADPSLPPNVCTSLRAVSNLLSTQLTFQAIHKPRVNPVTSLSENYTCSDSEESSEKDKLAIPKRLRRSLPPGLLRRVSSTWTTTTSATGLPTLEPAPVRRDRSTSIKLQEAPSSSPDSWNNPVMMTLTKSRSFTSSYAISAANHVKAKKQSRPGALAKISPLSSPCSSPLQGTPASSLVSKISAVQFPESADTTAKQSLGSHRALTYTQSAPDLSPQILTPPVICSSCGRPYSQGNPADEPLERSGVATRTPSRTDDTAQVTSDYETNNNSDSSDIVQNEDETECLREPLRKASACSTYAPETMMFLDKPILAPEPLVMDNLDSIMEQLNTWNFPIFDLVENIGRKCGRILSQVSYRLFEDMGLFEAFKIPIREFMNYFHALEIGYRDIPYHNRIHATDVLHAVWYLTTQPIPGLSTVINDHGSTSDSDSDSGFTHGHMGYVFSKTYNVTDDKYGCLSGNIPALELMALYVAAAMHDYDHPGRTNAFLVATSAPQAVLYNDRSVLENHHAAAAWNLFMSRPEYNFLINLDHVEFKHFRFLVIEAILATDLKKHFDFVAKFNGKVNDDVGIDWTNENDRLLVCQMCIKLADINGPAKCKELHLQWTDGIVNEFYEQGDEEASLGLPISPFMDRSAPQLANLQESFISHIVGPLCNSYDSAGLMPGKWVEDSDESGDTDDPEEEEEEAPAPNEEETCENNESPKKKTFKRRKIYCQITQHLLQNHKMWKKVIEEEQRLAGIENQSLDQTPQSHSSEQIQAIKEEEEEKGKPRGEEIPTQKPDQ
T4 sequence (P08588 whole entry): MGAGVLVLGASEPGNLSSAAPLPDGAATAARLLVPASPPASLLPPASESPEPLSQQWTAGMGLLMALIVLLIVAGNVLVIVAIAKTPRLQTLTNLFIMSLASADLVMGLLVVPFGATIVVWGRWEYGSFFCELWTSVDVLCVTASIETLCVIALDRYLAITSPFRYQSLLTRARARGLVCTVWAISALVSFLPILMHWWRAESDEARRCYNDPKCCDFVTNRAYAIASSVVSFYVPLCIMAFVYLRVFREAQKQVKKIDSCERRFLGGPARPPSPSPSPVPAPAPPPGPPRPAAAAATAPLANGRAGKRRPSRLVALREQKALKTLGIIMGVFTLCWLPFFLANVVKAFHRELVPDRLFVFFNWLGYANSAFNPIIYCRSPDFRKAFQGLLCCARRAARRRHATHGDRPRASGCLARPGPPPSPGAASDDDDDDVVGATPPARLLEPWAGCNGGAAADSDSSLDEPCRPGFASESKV
T1 sequence (P18090 whole entry): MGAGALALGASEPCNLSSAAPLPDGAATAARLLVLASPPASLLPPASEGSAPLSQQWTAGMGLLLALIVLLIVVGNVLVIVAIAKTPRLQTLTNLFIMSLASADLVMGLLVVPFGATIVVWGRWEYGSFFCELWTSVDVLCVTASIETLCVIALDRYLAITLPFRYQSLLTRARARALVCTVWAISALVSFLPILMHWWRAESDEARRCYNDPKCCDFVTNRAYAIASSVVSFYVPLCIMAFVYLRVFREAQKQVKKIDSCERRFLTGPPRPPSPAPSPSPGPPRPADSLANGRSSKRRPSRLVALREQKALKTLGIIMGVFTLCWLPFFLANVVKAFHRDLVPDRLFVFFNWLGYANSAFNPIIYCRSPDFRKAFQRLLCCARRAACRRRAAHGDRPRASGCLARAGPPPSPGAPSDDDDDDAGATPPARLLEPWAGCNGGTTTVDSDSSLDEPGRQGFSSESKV

Structure (SMILES): CC(C)NCC(O)COc1ccc(CC(N)=O)cc1 (stereo not drawn) [Atenolol, reference compound]
decrease of left ventricular contractility (% of isoproterenol effect) [1]: 82±2%
α1-adrenergic IC50, nM [2]: inactive
inhibition at 1 µM [3]: 23%
mean arterial pressure [4]: decreased mean arterial pressure
left ventricular contractility when administered alone [4]: decreased contractility

Structure (SMILES): COc1ccccc1OCCNCC(O)COc1cccc2[nH]c3ccccc3c12 (stereo not drawn) [Carvedilol, reference compound]
contractility (LV+dP/dtmax) at ED50 ([1]; Compound 25 0.3 mg/kg, carvedilol 0.1 mg/kg, Protocol 1, FIG. 13): decreased this parameter
ED50 ([1]; Oryctolagus cuniculus, isoproterenol challenge (0.5 μg/kg), intravenous, read-out: ED50, dose that diminished isoproterenol-dependent increase in HR by 50%): 0.1 mg/kg
relaxation properties (Tau) at ED50 ([1]; compared to control, Protocol 1, FIG. 13): negative lusitropic effect
decrease of left ventricular contractility (% of isoproterenol effect) [1]: 82±7%
mean arterial pressure [4]: decreased mean arterial pressure
left ventricular contractility when administered alone [4]: decreased contractility
contractility in naive anesthetized canines [5]: decreased this parameter at the higher doses

Structure (SMILES): O=C1CCC(c2ccc(OCC(=O)N3CCC(NC[C@H](O)COc4ccccc4Br)CC3)c(Cl)c2)=NN1 [Compound 8d, 6-[4-(2-{4-[3-(2-bromo-phenoxy)-2-hydroxy-propylamino]-piperidin-1-yl}-2-oxo-ethoxy)-3-chloro-phenyl]-4,5-dihydro-2H-pyridazin-3-one]
inhibition at 0.1 µM [6]: > 25%
IC50 ([7]; read-out: PDE3 inhibition IC50): < 1000 nM
IC50 [7, 9]: < 100 nM
inhibition at 0.1 µM [8]: > 25%

Structure (SMILES): O=C1CCC(c2ccc(OCC(=O)N3CCC(NC[C@H](O)COc4ccccc4C(F)(F)F)CC3)c(Cl)c2)=NN1 [Compound 8g, 6-[3-chloro-4-(2-{4-[2-hydroxy-3-(2-trifluoromethyl-phenoxy)-propylamino]-piperidin-1-yl}-2-oxo-ethoxy)-phenyl]-4,5-dihydro-2H-pyridazin-3-one]
inhibition at 0.1 µM [6]: > 25%
IC50 ([7]; read-out: PDE3 inhibition IC50): < 1000 nM
IC50 [7, 9]: < 100 nM
inhibition at 0.1 µM [8]: > 25%

Structure (SMILES): Cc1ccc(OC[C@@H](O)CNC2CCN(C(=O)COc3ccc(C4=NNC(=O)CC4)cc3Cl)CC2)cc1 [Compound 8p, 6-(3-chloro-4-{2-[4-(2-hydroxy-3-p-tolyloxy-propylamino)-piperidin-1-yl]-2-oxo-ethoxy}-phenyl)-4,5-dihydro-2H-pyridazin-3-one]
inhibition at 0.1 µM [6]: > 25%
IC50 ([7]; read-out: PDE3 inhibition IC50): < 1000 nM

Structure (SMILES): COCCc1ccc(OC[C@@H](O)CNCCOc2ccc(C3=NNC(=O)CC3)cc2Cl)cc1 [Compound 41, 6-[3-Chloro-4-(3-{(S)-2-hydroxy-propylamino]-ethoxy}-phenyl)-4,5-dihydro-2H-pyridazin-3-one]
IC50 ([7]; read-out: PDE3 inhibition IC50): < 1000 nM
IC50 [7, 9]: < 100 nM
inhibition at 0.1 µM [8]: > 25%

Structure (SMILES): COCCc1ccc(OC[C@@H](O)CNCCCCOc2ccc(C3=NNC(=O)CC3)cc2Cl)cc1 [Compound 44]
IC50 ([7]; read-out: PDE3 inhibition IC50): < 1000 nM
inhibition at 0.1 µM [8]: > 25%

More lines, now with the values ahead:

inhibition at 0.1 µM [6]: > 25%
IC50 ([7]; read-out: PDE3 inhibition IC50): < 1000 nM
IC50 [7, 9]: < 100 nM
inhibition at 0.1 µM [8]: > 25%
Structure (SMILES): CC(C)(CNC(=O)COc1ccc(C2=NNC(=O)CC2)cc1Cl)NCC(O)COc1cccc2[nH]c3ccccc3c12 (stereo not drawn) [Compound 49, N-{2-[3-(9H-carbazol-4-yloxy)-2-hydroxy-propylamino]-2-methyl-propyl}-2-[2-chloro-4-(6-oxo-1,4,5,6-tetrahydro-pyridazin-3-yl)-phenoxy]-acetamide]

IC50 ([7]; read-out: PDE3 inhibition IC50): < 1000 nM
IC50 [7, 9]: < 100 nM
Structure (SMILES): O=C(COc1ccc(C2=NNC(=O)CC2)cc1Cl)NCCNCC(O)COc1cccc2[nH]c3ccccc3c12 (stereo not drawn) [Compound 70]

IC50 ([7]; read-out: PDE3 inhibition IC50): < 1000 nM
Structure (SMILES): CC(C)(CNC(=O)COc1ccc(C2=NNC(=O)CC2)cc1Cl)NCC(O)COc1c(Br)ccc2[nH]c3ccccc3c12 (stereo not drawn) [Compound 72a, N-{2-[3-(3-Bromo-9H-carbazol-4-yloxy)-2-hydroxy-propylamino]-2-methyl-propyl}-2-[2-chloro-4-(6-oxo-1,4,5,6-tetrahydro-pyridazin-3-yl)-phenoxy]-acetamide]

IC50 ([7]; read-out: PDE3 inhibition IC50): < 1000 nM
Structure (SMILES): O=C1CCC(c2ccc(OCC(=O)N3CC(NCC(O)COc4cccc5[nH]c6ccccc6c45)C3)c(Cl)c2)=NN1 (stereo not drawn) [Compound 75, 6-[4-(2-{3-[3-(9H-Carbazol-4-yloxy)-2-hydroxy-propylamino]-azetidin-1-yl}-2-oxo-ethoxy)-3-chloro-phenyl]-4,5-dihydro-2H-pyridazin-3-one]
